This passage reports GI50 and TGI results from PubChem BioAssay (NCI).

Among the test systems are MALME-3M melanoma; SR leukemia; SW-620 colon; UO-31 renal; MOLT-4 leukemia; HOP-62 NSCLC; NCI/ADR-RES ovarian; UACC-62 melanoma; HS 578T breast; HCC-2998 colon.
Common to all, as to assay: DTP human tumour cell line panel, 48 h

Values joined by “and” are separate entries in the source; they are usually repeats but may differ in a detail not shown here. Equal entries are not always repeated.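 Growth conditions: 96-well plates. Treatment: test compound, 48 hours, 5 concentrations. Analysis: linear interpolation between bracketing concentrations; unreached endpoints set to highest concentration. At the GI50, growth is halved. TGI denotes the concentration required for complete inhibition of growth.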 Where only a bound is given, the exact number is not on record here.

Take `CN(C)CCNC(=O)c1ccc2c(c1)oc1cc3ccccc3c(=O)n12`: the GI50 (usually the concentration at which growth is held to half of that of the control) was 23.4 µM in the assay on MALME-3M melanoma; 13.4 µM in the assay on SR leukemia; 15.5 µM with SW-620 colon; 15.1 µM in the assay on UO-31 renal; 97.7 µM with MOLT-4 leukemia; 16 µM in the assay with HOP-62 NSCLC. Also, the figures for the GI50 with NCI/ADR-RES ovarian and in the assay with UACC-62 melanoma were 18.6 µM and 17.4 µM, respectively. Besides, the TGI (in general, the concentration giving total growth inhibition) with MALME-3M melanoma was 43.7 µM; in the assay with SR leukemia, above 100 µM; in the assay with SW-620 colon, 31.7 µM; in the assay on UO-31 renal it was 30.8 µM; with MOLT-4 leukemia, above 100 µM; in the assay with HOP-62 NSCLC, 30.8 µM. Also, the values for the concentration for total growth inhibition (TGI) in the assay with NCI/ADR-RES ovarian and with UACC-62 melanoma were 34.5 µM and 33.8 µM, respectively.

For the molecule `COc1cc(/C=C/C(=O)c2c(C)n([O-])c3ccccc3[n+]2=O)cc(OC)c1OC`, the GI50 in the assay with MALME-3M melanoma was 11.4 µM; in the assay with SR leukemia it was 2.75 µM; in the assay on SW-620 colon, 4.99 µM; with HS 578T breast, 3.51 µM; in the assay on UO-31 renal, 4.5 µM; in the assay on HCC-2998 colon, 8.77 µM. Also, the GI50 with MOLT-4 leukemia is 3.38 µM; with HOP-62 NSCLC, 12.4 µM; in the assay on NCI/ADR-RES ovarian, 4.02 µM; with UACC-62 melanoma, 11.3 µM. The TGI in the assay with MALME-3M melanoma was determined as 26.7 µM; in the assay with SR leukemia, 14.9 µM; in the assay on SW-620 colon, 17.1 µM; with HS 578T breast it was 21 µM; with UO-31 renal it was 17.5 µM; in the assay with HCC-2998 colon it was 22.3 µM. Further, the total growth inhibition concentration (TGI) was 40.7 µM in the assay on MOLT-4 leukemia, 24.9 µM with HOP-62 NSCLC, 20 µM in the assay on NCI/ADR-RES ovarian and 23.3 µM with UACC-62 melanoma.

Turning to `NC(CSC(c1ccccc1)(c1ccccc1)c1ccccc1)C(=O)O` (stereo not given), the GI50 in the assay with MALME-3M melanoma is 1.33 µM and 5.62 µM; with SW-620 colon it was 1.64 µM and 0.968 µM; in the assay with HS 578T breast, 0.723 µM; in the assay with UO-31 renal, 9.89 µM; in the assay on HCC-2998 colon it was 2.52 µM and 2.64 µM; with MOLT-4 leukemia, 7.54 µM and 5.01 µM. In addition, the GI50 was 19.3 µM and 4.5 µM with HOP-62 NSCLC; 10.9 µM in the assay on NCI/ADR-RES ovarian; 2.01 µM and 3.98 µM with UACC-62 melanoma. In addition, the total growth inhibition concentration (TGI) with MALME-3M melanoma is 49.2 µM and 39.2 µM and > 100 µM; with SR leukemia, 19.3 µM and 43.8 µM; in the assay on SW-620 colon, 107 µM and > 100 µM; in the assay on HS 578T breast it was 21 µM and 32.4 µM; in the assay with UO-31 renal, 107 µM and > 100 µM; with HCC-2998 colon, 7.4 µM and 10.8 µM and 23.9 µM. Further, the TGI with MOLT-4 leukemia is 83.8 µM and 15.9 µM and > 100 µM; in the assay on HOP-62 NSCLC it was 63 µM and > 100 µM; with NCI/ADR-RES ovarian, 48.2 µM and > 100 µM; in the assay with UACC-62 melanoma it was 42.9 µM and > 100 µM.

As for `Nc1n[n+]([O-])c2ccc(Cl)cc2[n+]1[O-]`, the concentration for total growth inhibition (TGI) was 59 µM in the assay with MALME-3M melanoma; above 100 µM in the assay on SR leukemia; 61.2 µM in the assay with SW-620 colon; above 100 µM in the assay on HS 578T breast; above 100 µM in the assay on UO-31 renal; 55.5 µM in the assay with HCC-2998 colon. For the same molecule, the TGI was above 100 µM in the assay with MOLT-4 leukemia, 79.7 µM in the assay on HOP-62 NSCLC and above 100 µM with NCI/ADR-RES ovarian.

As to `O=C1OC(c2ccc([N+](=O)[O-])cc2)=N/C1=C\c1ccc(Cl)cc1`, the concentration for total growth inhibition (TGI) with MALME-3M melanoma, with SR leukemia, with SW-620 colon, in the assay with HS 578T breast, in the assay on HCC-2998 colon and in the assay on MOLT-4 leukemia was above 100 µM in each case. For the same molecule, the concentration for total growth inhibition (TGI) in the assay with HOP-62 NSCLC and with UACC-62 melanoma was above 100 µM throughout.

As to `CN(c1cccc(C(=O)O)c1)c1cc(O/N=[N+](\[O-])N(C)C)c([N+](=O)[O-])cc1[N+](=O)[O-]`, the GI50 in the assay with SR leukemia was 56.4 µM; with SW-620 colon, above 100 µM; in the assay on HS 578T breast, above 100 µM; with UO-31 renal it was above 100 µM; with MOLT-4 leukemia, above 100 µM; in the assay with HOP-62 NSCLC, 46.8 µM. Also, the GI50 with NCI/ADR-RES ovarian and in the assay on UACC-62 melanoma was above 100 µM each time. In addition, the TGI in the assay with SR leukemia, with SW-620 colon, in the assay with HS 578T breast, with UO-31 renal, in the assay with MOLT-4 leukemia and in the assay with HOP-62 NSCLC was above 100 µM throughout. Further, the TGI in the assay with NCI/ADR-RES ovarian and in the assay with UACC-62 melanoma was above 100 µM each time.

In the case of `O=C(Nc1cc(Cl)c(I)c(Cl)c1)C(F)(F)F`, the TGI with SR leukemia was 99.5 µM; in the assay on SW-620 colon it was above 100 µM; with HS 578T breast, 75.7 µM; with UO-31 renal it was 73.7 µM; in the assay on HCC-2998 colon it was 34.2 µM; with MOLT-4 leukemia it was 82.7 µM. For the same molecule, the TGI was above 100 µM in the assay on HOP-62 NSCLC, above 100 µM with NCI/ADR-RES ovarian and 48.9 µM in the assay with UACC-62 melanoma.

Regarding `COc1ccc(Cn2cc3c(c2-c2ccccc2)CCc2cnoc2-3)cc1`, the GI50 is 0.0574 µM in the assay on SR leukemia; 0.113 µM with SW-620 colon; 0.183 µM in the assay with HS 578T breast; 0.677 µM with UO-31 renal; 0.209 µM in the assay with HCC-2998 colon; 0.361 µM with MOLT-4 leukemia. The values for the GI50 in the assay on HOP-62 NSCLC, with NCI/ADR-RES ovarian and with UACC-62 melanoma were 0.279 µM, 0.0462 µM and 0.0461 µM, respectively. Moreover, the TGI in the assay with SR leukemia was 3.16 µM; in the assay with SW-620 colon, above 100 µM; in the assay on UO-31 renal, above 100 µM; with HCC-2998 colon, 0.905 µM; in the assay with MOLT-4 leukemia, 4.38 µM; in the assay with HOP-62 NSCLC, above 48.5 µM. The values for the total growth inhibition concentration (TGI) in the assay on NCI/ADR-RES ovarian and in the assay on UACC-62 melanoma were 11.9 µM and above 100 µM, respectively.

With `O=CNC(Cc1cnc[nH]1)C(=O)O` (stereo not given), the TGI with MALME-3M melanoma, in the assay on SR leukemia, with SW-620 colon, with HS 578T breast, in the assay with UO-31 renal and with HOP-62 NSCLC was above 100 µM throughout. Also, the TGI with NCI/ADR-RES ovarian and in the assay with UACC-62 melanoma was above 100 µM in each case.

Regarding `Nc1nc(N)nc(CCCCc2nc(N)nc(N)n2)n1`, the TGI in the assay with MALME-3M melanoma, in the assay with SR leukemia, with SW-620 colon, in the assay on HS 578T breast, in the assay on UO-31 renal and with MOLT-4 leukemia was above 100 µM each time. Besides, the concentration for total growth inhibition (TGI) in the assay on HOP-62 NSCLC, in the assay on NCI/ADR-RES ovarian and in the assay on UACC-62 melanoma was above 100 µM throughout.

As to `CC(NCCN(C)C)C1CCC2C3CCc4cc(O)ccc4C3CCC12C` (stereo not given), the concentration for total growth inhibition (TGI) with MALME-3M melanoma was 3.73 µM; in the assay on SR leukemia, 3.85 µM; in the assay with SW-620 colon it was 12.7 µM; with HS 578T breast, 18.1 µM; in the assay with UO-31 renal, 3.76 µM; in the assay on MOLT-4 leukemia, 5.19 µM. Besides, the figures for the TGI with HOP-62 NSCLC, with NCI/ADR-RES ovarian and in the assay with UACC-62 melanoma were 8.7 µM, 8.97 µM and 3.45 µM, respectively.
